{
  "source": "Sander's compilation of Henry's law constants (doi:10.1080/09593338709384529)",
  "data": [
    {"test": "Henry solubility constant Hcp at 298.15 K (mol/(m3 Pa))", "conditions": "reference: Albanese et al. (1987)", "values": [
      {"compound": "ClC/C=C\\CCl", "note": "[(Z)-1,4-dichloro-2-butene]", "Henry solubility constant Hcp": 0.01},
      {"compound": "Cl/C=C/CCl", "note": "[trans-1,3-dichloropropene]", "Henry solubility constant Hcp": 0.0056},
      {"compound": "CC(Cl)CCl", "note": "(stereo not given) [1,2-dichloropropane]", "Henry solubility constant Hcp": 0.0049},
      {"compound": "ClC/C=C/CCl", "note": "[(E)-1,4-dichloro-2-butene]", "Henry solubility constant Hcp": 0.017},
      {"compound": "ClCCCCCl", "note": "[1,4-dichlorobutane]", "Henry solubility constant Hcp": 0.012},
      {"compound": "CC(Br)CBr", "note": "(stereo not given) [1,2-dibromopropane]", "Henry solubility constant Hcp": 0.0053},
      {"compound": "Cl/C=C\\CCl", "note": "[cis-1,3-dichloropropene]", "Henry solubility constant Hcp": 0.0042},
      {"compound": "C=C(Cl)CCl", "note": "[2,3-dichloropropene]", "Henry solubility constant Hcp": 0.0035},
      {"compound": "ClCC(Cl)CCl", "note": "[1,2,3-trichloropropane]", "Henry solubility constant Hcp": 0.033},
      {"compound": "ClCCCCl", "note": "[1,3-dichloropropane]", "Henry solubility constant Hcp": 0.0085}
    ]}
  ]
}
